Source: patent US8354455B2, “Prodrugs containing novel bio-cleavable linkers” (Piramal Enterprises Limited and Apparao Satyam, priority 2004, dated 2013)
Like-named read-outs stand apart in the source and are kept apart here. Values belong to the compound of their own block, whether it stands above or below them.

Tests used:
convulsant metrazol [1] = assay: Subcutaneous Metrazol Seizure Threshold Test (scMET), Test 1, mice i.p.; type: in vivo; conditions: Mus musculus, ip, symbol = dose with activity
MES-induced seizures [2] = assay: Maximal Electroshock Test (MES), Test 1, mice i.p.; type: in vivo
rats [3] = assay: Neurotoxicity, rats p.o. (Test 2 and Test 3)
MES-induced seizures [4] = assay: animal or person; type: in vivo, rats
convulsant metrazol [5] = assay: scMET, rats p.o. (Test 3); type: in vivo; conditions: Test 3, rats p.o.
Description: Subcutaneous Metrazol Seizure Threshold Test (scMET): Subcutaneous injection of the convulsant metrazol produces clonic seizures in laboratory animals. […] Animals were pretreated with various doses of the test compound given by i.p. injection. At the previously determined Time to Peak Effect (TPE) of the test compound, the dose of metrazol which will produce convulsions in 97% of animals (CD97: 85 mg/kg in mice) was injected into a loose fold of skin in the midline of the neck. The animals were placed in isolation cages to minimize stress and observed for the next 30 minutes for the presence or absence of a seizure. An episode of clonic spasms, approximately […], of the fore and/or hind limbs, jaws, or vibrissae is taken as the end point.
Rats received test compounds orally.

rats [6] = conditions: rat, in vivo, po
[7] = rat, in vivo, po
[8] = system: carrageenan-induced rat paw edema; assay: Carrageenan-induced rat paw edema; type: in vivo; conditions: 75 mg/kg equivalent dose of aspirin, p.o.
[9] = In vitro plasma stability; type: in vitro ADME; conditions: rat plasma, 37° C., 30 minutes incubation, HPLC
[10] = Test 2, rats p.o., 30 mg/kg, 1.00 h

SMILES: CCOC(=O)CC1(CNC(=O)OCCSSCCOC(=O)Nc2nnc(-c3cccc(Cl)c3Cl)c(N)n2)CCCCC1 [I-AA-MPD12]
minimal effective dose (convulsant metrazol [1]; 0.5 h, read-out: ScMET 0.5 h, mice, i.p., 0.5 h): > 300 mg/kg | minimal effective dose (convulsant metrazol [1]; 4 h, read-out: ScMET 4.0 h, mice, i.p., 4.0 h): > 300 mg/kg | toxicity (in words) (mice; Test 1, mice i.p.): no or mild toxicity | Rotorod Toxicity 0.5 h (mice; mice, i.p., 0.5 h, symbol = dose with toxicity): — (— = no activity or no toxicity at 300 mg/kg) | Rotorod Toxicity 4.0 h (mice; mice, i.p., 4.0 h, symbol = dose with toxicity): — (— = no activity or no toxicity at 300 mg/kg) | minimal effective dose (MES-induced seizures [2]; Mus musculus, ip, 0.5 h, read-out: MES 0.5 h, mice, i.p., 0.5 h, symbol = dose with activity): > 300 mg/kg | activity in MES model (in words) (MES-induced seizures [2]; Test 1, mice i.p.): active in MES | MES, at 6 hours after dosing (MES-induced seizures [2]; mice, i.p., 6 h (footnotes g, m; printed in 4.0 h column)): ++ (++ = activity or toxicity at 100 mg/kg) | Toxicity (number of animals exhibiting toxicity/number of animals tested) (rats [3]; [10]): 0/4 | Toxicity (number of animals exhibiting toxicity/number of animals tested) (rats [3]; Test 2, rats p.o., 30 mg/kg, 2.00 h): 0/4 | Toxicity (number of animals exhibiting toxicity/number of animals tested) (rats [3]; Test 2, rats p.o., 30 mg/kg, 4.00 h): 0/4 | Toxicity (number of animals exhibiting toxicity/number of animals tested) (rats [3]; Test 3, rats p.o., 50 mg/kg, 1.0 h): 0/4 (50) | Toxicity (number of animals exhibiting toxicity/number of animals tested) (rats [3]; Test 3, rats p.o., 50 mg/kg, 2.0 h): 0/4 (50) | Toxicity (number of animals exhibiting toxicity/number of animals tested) (rats [3]; Test 3, rats p.o., 50 mg/kg, 4.0 h): 0/4 (50) | Toxicity (number of animals exhibiting toxicity/number of animals tested) (rats [3]; Test 3, rats p.o., 50 mg/kg, 6.0 h): 0/4 (50) | Toxicity (number of animals exhibiting toxicity/number of animals tested) (rats [3]; Test 3, rats p.o., 50 mg/kg, 8.0 h): 0/4 (50) | Toxicity (number of animals exhibiting toxicity/number of animals tested) (rats [3]; Test 3, rats p.o., 50 mg/kg, 24 h): 0/4 (50) | ED50 (MES-induced seizures [4]; Rattus norvegicus, po, MES model, rats p.o., at time of peak effect): 17.1 mg/kg | MES (number of animal protected/number of animal tested) (MES-induced seizures [4]; [10]): 0/4 | MES (number of animal protected/number of animal tested) (MES-induced seizures [4]; Test 3 ED50 quantification, rats p.o., 6 h, 60 mg/kg): 7/8 | MES (number of animal protected/number of animal tested) (MES-induced seizures [4]; Test 3 time to peak effect, rats p.o., 15 mg/kg, 8.0 h): 1/4 | MES (number of animal protected/number of animal tested) (MES-induced seizures [4]; Test 3 time to peak effect, rats p.o., 30 mg/kg, 0.5 h): 0/4 | MES (number of animal protected/number of animal tested) (MES-induced seizures [4]; Test 3 time to peak effect, rats p.o., 30 mg/kg, 1.0 h): 0/4 | MES (number of animal protected/number of animal tested) (MES-induced seizures [4]; Test 3 time to peak effect, rats p.o., 30 mg/kg, 2.0 h): 1/4 | MES (number of animal protected/number of animal tested) (MES-induced seizures [4]; Test 3 time to peak effect, rats p.o., 30 mg/kg, 4.0 h): 3/4 | MES (number of animal protected/number of animal tested) (MES-induced seizures [4]; Test 3 time to peak effect, rats p.o., 30 mg/kg, 8.0 h): 4/4 | MES (number of animal protected/number of animal tested) (MES-induced seizures [4]; Test 3 time to peak effect, rats p.o., 30 mg/kg, 24 h): 2/4 | ScMET (50 mg/kg) (number of animal protected/number of animal tested) (convulsant metrazol [5]; 1.0 h): 1/4 | ScMET (50 mg/kg) (number of animal protected/number of animal tested) (convulsant metrazol [5]; 2.0 h): 0/4 | ScMET (50 mg/kg) (number of animal protected/number of animal tested) (convulsant metrazol [5]; 4.0 h): 0/4 | ScMET (50 mg/kg) (number of animal protected/number of animal tested) (convulsant metrazol [5]; 6.0 h): 1/4 | ScMET (50 mg/kg) (number of animal protected/number of animal tested) (convulsant metrazol [5]; 8.0 h): 2/4 | ScMET (50 mg/kg) (number of animal protected/number of animal tested) (convulsant metrazol [5]; 24 h): 0/4

bioavailability compared with parent drug (in words) [7]: as bioavailable as its parent drug
SMILES: CC(=O)Oc1ccccc1C(=O)[N-]C(=O)OCCSSCCO[N+](=O)[O-].[Na+] [I-C1-NOPD5B]
ulcers (in words) (rats [6]; 200 mg/kg): none of the animals treated with the test compounds showed any signs of development of ulcers

SMILES: CC(=O)Oc1ccccc1C(=O)OCCSSCCO[N+](=O)[O-] [I-C1-NOPD4]
anti-inflammatory activity (in words) [8]: significant activity during the first two hours | Rat paw edema (% inhibition) 1 hour ([8]; Mean ± SEM, n = 6): 42.4 ± 13.3% | Rat paw edema (% inhibition) 2 hour ([8]; Mean ± SEM, n = 6): 44.9 ± 12.9% | Rat paw edema (% inhibition) 4 hour ([8]; Mean ± SEM, n = 6): 24.3 ± 7.7% | Rat paw edema (% inhibition) 6 hour ([8]; Mean ± SEM, n = 6): 8.6 ± 5.1% | ulcers (in words) (rats [6]; 100 mg/kg): none of the animals treated with the test compounds showed any signs of development of ulcers | salicylate release / absorption profile (in words) ([7]; both, Sprague-Dawley, 35 mg/kg): released in a sustained and controlled manner starting from 1 hour through 12 hours | release of parent drug / conversion to salicylate (in words) [9]: converting to the expected metabolite (salicylate)

SMILES: CC(=O)Oc1ccccc1C(=O)NC(=O)OCCSSCCO[N+](=O)[O-] [I-C1-NOPD5A]
anti-inflammatory activity (in words) [8]: negligible anti-inflammatory activity | ulcers (in words) (rats [6]; 200 mg/kg): none of the animals treated with the test compounds showed any signs of development of ulcers | release of parent drug / conversion to salicylate (in words) [9]: converting to the expected metabolite (salicylate)
